Results published in patent US5804164A, “Water-soluble lipophilic contrast agents” (Research Corporation Technologies, Inc., priority 1996, dated 1998).

Test: Relaxivity of dialyzed liposomal Gd(BME-DTTA)
Type: physicochemical
Conditions: dialyzed against saline pH 7.4 with HEPES and Chelex-100
Experimental: In this comparative example, the gadolinium complex of N^3,N^6 -bis(2'-myristoyloxyethyl)-1,8-dioxo-triethylenetetraamine-N,N,N',N'-tetraacetic acid [Gd(BME-DTTA)] was prepared and used for cardiac tissue imaging. Specifically, Gd(BME-DTTA) was synthesized and incorporated into liposomes using the procedure described in the Elgavish et al. article entitled "Fatty-acyl iminopolycarboxylates; lipophilic bifunctional contrast agents for NMR imaging", Magn. Reson. Med. 1991; Vol 22; pp. 57-67.
The liposomal Gd(BME-DTTA) was dialyzed at 4° C. for 24 hours against a saline solution (pH 7.4) that contained 0.9 weight % NaCl, 20 mmol/L HEPES, and 0.5 weight % Chelex-100 to remove any weakly bound Gd ions. […] (mmol/L)^-1.

relaxivity: 27.1±0.3 s^-1. (mmol/L)^-1
Substance: gadolinium complex of N^3,N^6 -bis(2'-myristoyloxyethyl)-1,8-dioxo-triethylenetetraamine-N,N,N',N'-tetraacetic acid [Gd(BME-DTTA)]
